Reference: patent US11472838B2, “Inhibitors of blood coagulation factor XIII” (Zedira GmbH, priority 2018, dated 2022)
Like-named read-outs stand apart in the source and are kept apart here. *1 amine or outer side, *2 acyl side, *3 side chain or, on linkers, in order; H or OH if unused. Where a SMILES comes first, the peptide text is derived from it. [ ]: non-standard residue; d: D form. The star is where a group is joined. ξ: configuration not given here. Benzoyl(2-COOH,5-NO2) = O=C(O)c1ccc([N+](=O)[O-])cc1C(=O)*; Nle(5E-ene,6-CO2Et) = CCOC(=O)/C=C/CC[C@H](N)C(=O)O; Isonicotinoyl(3-COOH) = O=C(O)c1cnccc1C(=O)*; X1 = COC(=O)/C=C/CC[C@H](N[*:1])C(=O)[*:2]; X5 = CNC(=O)/C=C/CC[C@H](N[*:1])C(=O)[*:2]; Pro(4-methylene) = C=C1CN[C@H](C(=O)O)C1; X2 = O=C(O)c1cc([N+](=O)[O-])ccc1C(=O)*; Pro(4-oxo) = O=C1CN[C@H](C(=O)O)C1; Thiophene2carbonyl = O=C(c1cccs1)*; Ala(cPr) = N[C@@H](CC1CC1)C(=O)O; Ile(3ξ) = CCC(C)[C@H](N)C(=O)O; Thr(3ξ) = CC(O)[C@H](N)C(=O)O; Chg = N[C@H](C(=O)O)C1CCCCC1; Tle = CC(C)(C)[C@H](N)C(=O)O; Nle = CCCC[C@H](N)C(=O)O; NHIsopentyl = CC(C)CCN*; Cbz = O=C(OCc1ccccc1)*

Assays:
TG2 = TG2 (Homo sapiens (Human), UniProt P21980); assay: Inhibitory activity against TG2 (isopeptidase assay), Tables 3 and 4; format: biochemical; details: for Selectivity: TG2 versus FXIII
TG2, sequence (P21980 whole entry): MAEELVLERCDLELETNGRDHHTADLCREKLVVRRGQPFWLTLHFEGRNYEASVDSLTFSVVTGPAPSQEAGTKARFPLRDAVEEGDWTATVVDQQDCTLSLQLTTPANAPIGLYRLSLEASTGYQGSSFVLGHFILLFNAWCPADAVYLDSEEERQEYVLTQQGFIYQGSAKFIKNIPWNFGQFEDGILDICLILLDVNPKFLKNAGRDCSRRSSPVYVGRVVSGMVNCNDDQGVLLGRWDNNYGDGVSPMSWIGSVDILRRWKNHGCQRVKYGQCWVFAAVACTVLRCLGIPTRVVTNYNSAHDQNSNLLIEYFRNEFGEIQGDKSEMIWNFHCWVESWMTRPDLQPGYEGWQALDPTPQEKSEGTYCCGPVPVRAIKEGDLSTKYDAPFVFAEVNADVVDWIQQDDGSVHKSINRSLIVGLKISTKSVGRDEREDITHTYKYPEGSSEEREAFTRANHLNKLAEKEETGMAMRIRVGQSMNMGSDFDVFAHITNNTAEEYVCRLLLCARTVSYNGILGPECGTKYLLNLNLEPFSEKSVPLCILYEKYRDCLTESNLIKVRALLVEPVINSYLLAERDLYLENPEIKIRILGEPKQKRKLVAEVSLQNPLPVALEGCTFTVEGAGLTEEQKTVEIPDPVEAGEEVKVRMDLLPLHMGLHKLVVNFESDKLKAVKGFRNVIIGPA

[1] = Stability of compounds in plasma (HPLC)
Experimental: Further, the stability of compounds in plasma was determined as prerequisite for drug-likeness. Briefly, after spiking the chemical entities, the plasma was incubated at 37° C. At certain time points (e.g. at 15 and 120 minutes), 3 vol. cold MeOH were added to extract the compounds. After centrifugation, the supernatant was analyzed by HPLC. The half life was calculated based on the respective calibration curve.

FXIII = FXIII (Homo sapiens (Human), UniProt P00488); assay: Inhibitory activity against FXIII (isopeptidase assay), Tables 3 and 4; format: biochemical;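 note: FXIIIa activity read with a peptide substrate derived from the α2-antiplasmin N-terminal dodecapeptide, FXIII activated beforehand at room temperature, inhibitor-free wells with DMSO buffer as control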
FXIII, sequence (P00488 39-732): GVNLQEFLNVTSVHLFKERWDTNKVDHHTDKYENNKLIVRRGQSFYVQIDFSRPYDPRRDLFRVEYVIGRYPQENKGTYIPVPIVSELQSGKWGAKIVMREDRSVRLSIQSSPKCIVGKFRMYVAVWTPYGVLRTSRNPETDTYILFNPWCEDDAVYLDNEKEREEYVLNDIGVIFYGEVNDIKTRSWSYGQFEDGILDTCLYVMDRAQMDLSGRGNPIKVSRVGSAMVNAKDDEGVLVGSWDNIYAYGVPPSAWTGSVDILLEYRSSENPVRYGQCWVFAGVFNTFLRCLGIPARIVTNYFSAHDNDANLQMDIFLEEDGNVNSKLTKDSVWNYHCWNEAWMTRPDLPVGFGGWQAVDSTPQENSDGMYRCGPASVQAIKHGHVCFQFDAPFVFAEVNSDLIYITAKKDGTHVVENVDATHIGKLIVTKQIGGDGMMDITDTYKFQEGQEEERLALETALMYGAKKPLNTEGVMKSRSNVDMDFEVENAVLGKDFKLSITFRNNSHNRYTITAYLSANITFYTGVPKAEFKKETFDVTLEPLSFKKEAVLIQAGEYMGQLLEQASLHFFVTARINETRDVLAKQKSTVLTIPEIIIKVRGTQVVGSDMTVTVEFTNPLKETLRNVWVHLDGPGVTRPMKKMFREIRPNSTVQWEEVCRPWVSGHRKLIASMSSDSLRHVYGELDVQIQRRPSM

| IC50 (TG2; Table 4, read-out: TG2 IC50) [nM] | IC50 (FXIII; Table 4, read-out: FXIII IC50) [nM] | Selectivity (TG2; Table 4) | SMILES | also measured |
| --- | --- | --- | --- | --- |
| 196 | > 10 |  | CCCC[C@H](NC(=O)[C@H](CC/C=C/C(=O)OC)NC(=O)[C@@H]1CC(=O)CN1)C(=O)N[C@H](C(=O)N[C@@H](CC(C)C)C(=O)N1CCC[C@H]1C(=O)O)C(C)CC (some centres unmarked) [Ref. 16, reference compound] (H-[Pro(4-oxo)][X1][Nle][Ile(3ξ)]LP-OH) | half-life ([1]; plasma): < 15 min |
| 176 | 8180 | 0.02 | CCOC(=O)/C=C/CC[C@H](NC(=O)OCc1ccccc1)C(=O)N[C@H](C(=O)N1CCC[C@H]1C(=O)N[C@H](C(=O)NCCC(C)C)C1CCCCC1)C(C)C [Ref. 10, reference compound] (Cbz-[Nle(5E-ene,6-CO2Et)]VP[Chg]-NHIsopentyl) |  |
| 36 | 3650 | 0.01 | CCOC(=O)/C=C/CC[C@H](NC(=O)OCc1ccccc1)C(=O)N[C@H](C(=O)N1CCC[C@H]1C(=O)N[C@@H](CC(C)C)C(=O)N[C@H](C(N)=O)C1CCCCC1)C(C)C [Ref. 08, reference compound] (Cbz-[Nle(5E-ene,6-CO2Et)]VPL[Chg]-NH2) |  |
| 26 | 5690 |  | CCOC(=O)/C=C/CC[C@H](NC(=O)OCc1ccccc1)C(=O)N[C@@H](CCC(N)=O)C(=O)N1CCC[C@H]1C(=O)N[C@@H](CC(C)C)C(=O)N[C@H](C(N)=O)C1CCCCC1 [Ref. 09, reference compound] (Cbz-[Nle(5E-ene,6-CO2Et)]QPL[Chg]-NH2) |  |

The next lines start with the compound.

| SMILES | IC50 (TG2; Table 4, read-out: TG2 IC50) [nM] | IC50 (FXIII; Table 4, read-out: FXIII IC50) [nM] | Selectivity (TG2; Table 4) | also measured |
| --- | --- | --- | --- | --- |
| CNC(=O)/C=C/CC[C@H](NC(=O)c1ccncc1C(=O)O)C(=O)N[C@H](C(=O)N1CC(=O)C[C@H]1C(=O)N[C@H](C(=O)N[C@H](C(N)=O)C1CCCCC1)C1CCCCC1)C(C)(C)C [17a/b] ({Isonicotinoyl(3-COOH)}-[X5][Tle][Pro(4-oxo)][Chg][Chg]-NH2) |  |  |  | Selectivity (TG2; isopeptidase assay, Table 3): 7.2; IC50 (TG2; isopeptidase assay, Table 3, read-out: IC50 [nM] TG2): 295 nM; recovery in plasma determined by HPLC ([1]; plasma, 37° C., over a period of 2 hours): > 75%; IC50 (FXIII; isopeptidase assay, Table 3, read-out: IC50 [nM] FXIII): 41 nM |
| COC(=O)/C=C/CC[C@H](NC(=O)[C@H](CC(N)=O)NC(C)=O)C(=O)N[C@@H](CCC(=O)O)C(=O)N[C@@H](CCC(N)=O)C(=O)N[C@H](C(=O)N[C@@H](CO)C(=O)N1CCC[C@H]1C(=O)N[C@@H](CC(C)C)C(=O)O)C(C)C [Ref. 21, reference compound] (Ac-N[X1]EQVSPL-OH) | 421 | > 10 |  |  |
| C=C1C[C@@H](C(=O)N[C@@H](CC(C)C)C(=O)N[C@H](C(N)=O)C2CCCCC2)N(C(=O)[C@@H](NC(=O)[C@H](CC/C=C/C(=O)OCC)NC(=O)c2ccc([N+](=O)[O-])cc2C(=O)O)C(C)(C)C)C1 [Compound 42a] (X2-[Nle(5E-ene,6-CO2Et)][Tle][Pro(4-methylene)]L[Chg]-NH2) |  |  |  | recovery at 2 h [1]: > 75% |
| COC(=O)/C=C/CC[C@H](NC(=O)[C@H](CC(N)=O)NC(C)=O)C(=O)N[C@@H](CCC(=O)O)C(=O)N[C@@H](CCC(N)=O)C(=O)N[C@H](C(=O)N[C@@H](CO)C(=O)N1CCC[C@H]1C(=O)N[C@@H](CC(C)C)C(=O)N[C@H](C(=O)O)C(C)O)C(C)C (some centres unmarked) [Ref. 20, reference compound] (Ac-N[X1]EQVSPL[Thr(3ξ)]-OH) | 381 | 8480 | 0.04 |  |
| CCOC(=O)/C=C/CC[C@H](NC(=O)c1cccs1)C(=O)N[C@@H](CCC(N)=O)C(=O)N1CCC[C@H]1C(=O)N[C@@H](CC(C)C)C(=O)N[C@H](C(N)=O)C1CCCCC1 [Ref. 11, reference compound] (Thiophene2carbonyl-[Nle(5E-ene,6-CO2Et)]QPL[Chg]-NH2) | 253 | 5360 | 0.05 |  |
| COC(=O)/C=C/CC[C@H](NC(=O)[C@H](CC(N)=O)NC(C)=O)C(=O)N[C@@H](CCC(=O)O)C(=O)N[C@@H](CCC(N)=O)C(=O)N[C@H](C(=O)N[C@@H](CO)C(=O)N1CCC[C@H]1C(=O)N[C@@H](CC(C)C)C(=O)N[C@H](C(=O)N[C@@H](CC(C)C)C(=O)O)C(C)O)C(C)C (stereo partly drawn) [Ref. 19, reference compound] (Ac-N[X1]EQVSPL[Thr(3ξ)]L-OH) | 370 | 4980 | 0.07 |  |
| C=C1C[C@@H](C(=O)N[C@@H](CC(C)C)C(=O)N[C@H](C(N)=O)C2CCCCC2)N(C(=O)[C@@H](NC(=O)[C@H](CC/C=C/C(=O)OCC)NC(=O)c2cc([N+](=O)[O-])ccc2C(=O)O)C(C)(C)C)C1 [Compound 42b] ({Benzoyl(2-COOH,5-NO2)}-[Nle(5E-ene,6-CO2Et)][Tle][Pro(4-methylene)]L[Chg]-NH2) |  |  |  | recovery at 2 h [1]: > 75% |
| CCOC(=O)/C=C/CC[C@H](NC(=O)c1cccs1)C(=O)N[C@@H](CC1CC1)C(=O)N1CCC[C@H]1C(=O)N[C@@H](CC(C)C)C(=O)N[C@H](C(N)=O)C1CCCCC1 [Compound 41] (Thiophene2carbonyl-[Nle(5E-ene,6-CO2Et)][Ala(cPr)]PL[Chg]-NH2) |  |  |  | recovery at 2 h [1]: > 75% |
